{
  "source": "paper PMC10747736",
  "about": "“In Vitro Activities of Dithiocarbamate Derivatives against Echinococcus multilocularis Metacestode Vesicles” (Tropical Medicine and Infectious Disease, 2023)",
  "tested_on": "E. multilocularis metacestode vesicles",
  "assay": "PGI assay (damage marker release) with metacestode vesicles",
  "format": "cell-based, Echinococcus multilocularis",
  "set-up": "key: Active: Compounds were considered active when they reached 20% of PGI release relative to Triton X-100; Not active: Compounds were considered active when they reached 20% of PGI release relative to Triton X-100",
  "conditions": "overview screen at 10 µM, five days, 20% cut-off relative to Triton X-100",
  "experimental": "In order to screen disulfiram and dithiocarbamate derivatives as potential new drug candidates, we used an in vitro screening cascade, in which the compounds were first screened against E. multilocularis metacestode vesicles via the phosphoglucose isomerase (PGI) assay, in which metacestode vesicle damage is assessed by the measurement of damage marker (PGI) release (Figure 1, see Section 2.6). […] Subsequently, compounds were assessed in concentration series on E. multilocularis metacestode vesicles via the PGI assay and on GL cell cultures via the CellTiter-Glo assay (see Section 2.9). The testing on mammalian cells as well as metacestode vesicles and GL cell cultures allowed the identification of a potential therapeutic window in vitro.\nPGI assays were conducted at the University of Bern as described previously. In short, two-to-three-month-old metacestode vesicles of two to four mm in diameter were purified using 2% sucrose followed by several washing steps in PBS. Purified metacestode vesicles were mixed with two volumes of DMEM without phenol red containing penicillin (100 U/mL) and streptomycin (100 µg/mL). […] Samples were measured on an EnSpire multilabel reader (Perkin Elmer, Waltham, MA, USA). […] Samples were measured on a HIDEX Sense microplate reader (Hidex, Turku, Finland). […]",
  "data": [
    {"smiles": "CCN(CC)C(=S)SSC(=S)N(CC)CC", "note": "[Disulfiram]", "values": [
      {"measurement": "PGI assay (active / not active)", "value": "Not active"},
      {"measurement": "PGI assay (active / not active)", "setting": "listed as disulfiram", "value": "showed no effect"}
    ]}
  ]
}
